Values quoted from earlier work as cited in US20010034023A1, “Gene sequence variations with utility in determining the treatment of disease, in genes relating to drug processing” (priority 1999, published 2001).
Counter-ions that a name gives are not always drawn.

Columns and labels:
[1] = high dose
[2] = PDR
[3] = not given; remark: listed apart in the source
[4] = tested on: hepatitis C virus infection
[5] = Alzheimer's patients receiving Cognex

O=c1[nH]cc(F)c(=O)[nH]1 [5-fluorouracil]
patients with an objective response to the drug (advanced colorectal cancer): 20-40% | patients with a complete response (complete tumor disappearance) (advanced colorectal cancer, of the objective responders): 1-5% | patients suffering serious gastrointestinal or hematopoietic toxicity (up to, depending on the regimen): 20-30%

CC(=O)Nc1ccc(O)cc1 [Acetominophen]
dose required for significant liver injury to occur [1]: 10-15 grams

Nc1c2c(nc3ccccc13)CCCC2 [Cognex, tacrine hydrochloride]
patients showing no change or minimal worsening of their disease ([2]; Alzheimer's disease patients receiving Cognex): about 45% | patients minimally improved [2, 5]: About 58% | patients much improved [2, 5]: about 2%

NNC(=O)c1ccncc1 [INH, Isoniazid]
persons in whom subclinical liver injury occurs ([3]; persons taking INH): 10-20% | hepatotoxicity in slow acetylators ([3]; slow acetylators): more hepatotoxic

interferon alpha
patients in whom viral infection is completely and permanently eliminated [4]: less than a quarter of patients | patients receiving virtually no benefit [4]: Nearly half of patients
